Values joined by “and” are separate entries in the source; they are usually repeats but may differ in a detail not shown here. Identical values can stand only once. Marks after values point to notes of the source that are not given here.
Key:
[1] = animal experiment using rats; cited from earlier work
[2] = phase II clinical trial with AD patients; cited from earlier work
[3] = test system: scopolamine and MK801-induced cognitive impairment; experiment: Example 5: Y-maze test, scopolamine and MK801-induced deficits, co-administration with donepezil (Table 102); assay type: in vivo, ddY mouse; details: Donepezil 10 mg/kg, p.o. alone
Text: (§1) Thus, scopolamine-induced cognitive impairment model, one of the AD-like model, has been used to predict pharmacodynamic signals of putative procognitive compounds, utilizing the acetylcholinesterase inhibitor donepezil for illustration (See, Citations 1 and 2). The present inventors investigated the effect of each compound on reversal of scopolamine-induced deficits in performance of Y-maze test in mice, and they also investigated adjunctive effect of compounds with donepezil on reversal of deficits induced by scopolamine and MK801 in mice.
(§2) Used animal: ddY mouse (SLC)
(§3) In the experiments, the mice were grouped in the same way using Stat Preclinica (Version 1.03295; Takumi Information Technology Inc.). The selected mice were divided into 5 to 7 groups of 7 to 12 mice using the “completely randomization design by the single variable” program (Analytical program version 1.0.7), with body weight on the testing day. After grouping, p values for Bartlett's test and ANOVA across all groups were greater than 0.2, indicating no significant difference in this parameter among the groups.
The required amount of each compound was weighed and put into a glass homogenizer. The required amount of 0.5% MC (methyl cellulose) solution was added, and each compound was suspended to give a 10 mg/kg dosing suspension.
The required amount of donepezil was weighed and put into a glass homogenizer. The required amount of 0.5% MC solution was added, and donepezil was suspended to give a suspension at concentration of 1 mg/mL (10 mg/kg dosing suspension).
(§4) The required amount of scopolamine and MK801 were weighed, and saline was added to it to give 0.3 mg/mL and 0.015 mg/mL solution, respectively.
(§5) 90 Min before the test, the mice were orally administered each compound, donepezil, and vehicle (0.5% methyl cellulose, 10 mL/kg). After 60 min, memory impairment was induced by administering scopolamine (0.6 mg/kg, s.c.) with (co-administration) or without (mono-administration) MK801 (0.03 mg/kg, s.c.). The control group received saline (2 mL/kg, s.c.) rather than scopolamine and MK801.
(§6) The Y-maze used herein is a three-arm maze with equal angles between all arms. The mazefloor and walls were constructed from black acrylic resin. The mice were initially placed within one arm, and the sequence and number of arm entries were recorded manually for each mouse over an 8-min period.
(§7) Data were processed and analyzed with Microsoft® Office Excel 2003. The alternation behavior was defined as entries into all three arms on consecutive occasions. The percent alternation behavior in each animal was calculated using the following formula, and rounded to one decimal place.
(§8) Alternation behavior(%)=[actual alternation/(total arm entries−2)]×100
(§9) Restoration ratio of alternation behavior (%) in each animal was calculated using the following formula, and rounded to one decimal place.
(§10) Restoration ratio of alternation behavior in each animal (%)=y Alternation behavior in each animal (%)=x Mean of alternation behavior in vehicle-treated group (group No. 1) (%)=A Mean of alternation behavior in scopolamine-treated group (group No. 2) (%)=B
(§11) Data were expressed as the mean of the percent alternation behavior, the number of total arm entries and the restoration ratio of alternation behavior.
(§12) Values of Y-maze tests are expressed as mean of alternation behavior (n=7−12).
(§13) Alternation behaviors in the scopolamine-treated groups were compared to those in the control groups using Wilcoxon rank sum test (Stat preclinical; Version 1.03295; Takumi Information Technology Inc.) with a two-sided significance level of 0.05.
Restoration of alternation behavior was analyzed using Stat Preclinica. Alternation behaviors in the Donepezil (10 mg/kg, p.o.)-treated group were compared to those in the co-administrated groups of test compounds with donepezil (10 mg/kg, p.o.) using non-parametric Dunnett multiple comparison test (Analytical program version 1.0.2) with a two-sided significance level of 0.05.

[4] = test system: scopolamine-induced cognitive impairment; experiment: Example 5: Y-maze test, scopolamine-induced cognitive impairment, single-agent administration (Table 101); assay type: in vivo, ddY mouse; details: p.o., scopolamine-treated, # = P<0.05 vs scopolamine group
Text: as §1, §2, §3
The required amount of each compound was weighed and put into a glass homogenizer. […]
as §4, §5, §6, §7, §8, §9, §10, §11, §12, §13
Restoration of alternation behavior was analyzed using Stat Preclinica. Alternation behaviors in the vehicle-treated group were compared to those in the test substance-treated groups using non-parametric Dunnett multiple comparison test (Analytical program version 1.0.2) with a two-sided significance level of 0.05.

[5] = biological target: T1, 5-HT4 receptor (Cavia porcellus, UniProt O70528); experiment: Test Example 1: Serotonin 4 (5-HT4) receptor binding assay, [3H]-GR113808, guinea pig striatum membranes (Table 96); details: Guinea pig 5-HT4 receptor binding assay, [3H]-GR113808, striatum membranes; mean value of each group
T1 construct: striatum was isolated which was cryopreserved at −80° C. until use; from tissue; host or cells: guinea pig (Slc-Hartley) striatum membranes
Description: The 5-HT4 receptor binding assay and preparations of receptor membrane preparations herein were carried out according to a method of Grossman et al. [see, British J. Pharmacol., (1993) 109, 618].
Slc-Hartley guinea pigs (body weight 300 g to 400 g) were decapitated to remove brain rapidly, and striatum was isolated which was cryopreserved at −80° C. until use. To the obtained tissues were added fifteen fold of Hepes buffer (50 mM, pH 7.4, 4° C.), and the mixture was homogenized by Teflon (trademark) homogenizer and centrifuged at 48,000×g (4° C.) for 15 minutes. To the resulting precipitate was added Hepes buffer (1 ml) to 30 mg by wet weight of tissues, and the mixture was suspended to give receptor membrane preparations.
To an assay tube were added 0.1 nM [^3H]-GR113808 {chemical name: [1-[2-(methylsulfonylamino)ethyl]-4-piperidinyl]methyl 1-methylindole-3-carboxylate}, receptor membrane preparations, and Hepes buffer (50 mM, pH 7.4, 4° C., 1 ml) containing test compounds or 30 μM serotonin; and the mixture was incubated at 37° C. for 30 minutes. On quenching the reaction, the mixture was rapidly filtered on whatman GF/B filter, which was presoaked in 0.1% polyethyleneimine for 1 hour, by using Brandel cell Harvester, and washed with ice-cooled 50 mM Tris-HCl (pH 7.7, 4 ml) three times. To the filter after filtration was added a liquid scintillator (Ecoscint), and then a radioactivity was determined by a liquid scintillation counter.
50% Inhibition concentrations (IC50) were determined from inhibition rates of test compounds to specific bindings which were obtained by subtracting nonspecific bindings from total binding amounts of [^3H]-GR113808.
(§14) In the following table, the compounds used in the test are shown in numbers which correspond to the Example numbers above where the preparations of the compounds are described.

[6] = biological target: T2, human 5-HT4b receptor (Homo sapiens, UniProt Q13639); experiment: Test Example 2: Serotonin 4 (5-HT4) receptor agonist activity assay, cAMP HTRF in CHO cells (Table 97); assay type: cell-based; details: cAMP in CHO cells expressing human 5-HT4b receptor, mean value
T2 construct: expressed in transfected cells; host or cells: CHO cells (G418 selection)
Description: The cAMP measurement test used herein was carried out by using CISBIO HTRF (trademark) cAMP Hirange kit according to the manufacturer's instructions attached therewith.
CHO cells expressing human 5-HT4b receptor were incubated in Medium 1 [DMEM/1% NEAA, 1% penicillin/streptomycin (P/S), 0.2 mg/mL GENETICIN (G418), 10% FBS] at 37° C. under 5% CO2 condition. Then, the cells were put into Medium 2 (DMEM/10000 cut FBS, G-418, P/S, NEAA) for 1 to 2 hours, and collected by treating with trypsin containing EDTA. The collected cells were suspended in Assay Buffer 1 [100 mM Hanks/HEPES buffer (pH 7.4)], the suspended cells were mixed with the testing compound on 384-well plates, and the cells were incubated at 31° C. for 15 minutes. To the cells were added cAMP-cryptate solution and cAMP-d2 solution, and they were incubated at room temperature for 1 hour. Then, time-resolved fluorescence was measured by En Vision (excitation wavelength: 330 nm, fluorescence wavelength: 620/665 nm). An intrinsic activity of the compound [IA (%)] and a concentration showing 50% of IA [EC50 (nM)] were calculated from the obtained results. In particular, the intrinsic activity (IA) was calculated on the basis of the maximal activity of 5-HT (measured from 10^−11 M to 10^−7 M) defined as 100%.
as §14

T2 sequence (Q13639 whole entry): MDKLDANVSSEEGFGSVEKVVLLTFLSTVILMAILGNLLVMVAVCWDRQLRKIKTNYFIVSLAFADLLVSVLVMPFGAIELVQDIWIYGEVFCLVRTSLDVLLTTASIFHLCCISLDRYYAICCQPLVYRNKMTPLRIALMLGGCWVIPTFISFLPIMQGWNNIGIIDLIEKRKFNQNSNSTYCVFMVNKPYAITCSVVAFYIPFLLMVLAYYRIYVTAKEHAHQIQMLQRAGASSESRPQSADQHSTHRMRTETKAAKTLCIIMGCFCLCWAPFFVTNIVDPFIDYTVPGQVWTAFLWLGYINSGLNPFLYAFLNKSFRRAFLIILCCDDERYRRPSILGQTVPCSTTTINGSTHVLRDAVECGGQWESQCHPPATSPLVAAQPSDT
T1 sequence (O70528 whole entry): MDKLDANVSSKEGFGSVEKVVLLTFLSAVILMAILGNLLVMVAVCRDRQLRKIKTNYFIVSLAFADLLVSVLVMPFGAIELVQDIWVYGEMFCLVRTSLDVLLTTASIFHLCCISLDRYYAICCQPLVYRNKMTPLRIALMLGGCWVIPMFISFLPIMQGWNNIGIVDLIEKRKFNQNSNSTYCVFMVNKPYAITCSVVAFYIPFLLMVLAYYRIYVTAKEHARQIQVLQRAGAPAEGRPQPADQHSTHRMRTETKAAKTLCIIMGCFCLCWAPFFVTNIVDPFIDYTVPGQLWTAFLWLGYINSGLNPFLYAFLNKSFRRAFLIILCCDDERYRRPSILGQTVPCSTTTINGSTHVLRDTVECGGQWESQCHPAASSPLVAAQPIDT

Structure (SMILES)	Alternation behavior (%) ([4]; compound 1 mg/kg)	Alternation behavior (%) ([4]; compound 3 mg/kg)	Alternation behavior (%) ([4]; compound 10 mg/kg)	further results
CC(C)n1c(=O)c(C(=O)NCCCN2CCCCC2)c(O)c2ccsc21 [PRX-03140]				improving cognitive function [1]: efficacious for improving cognitive function; lowering Aβ [1]: lowering Aβ; effect for improving cognitive function [2]: shows the effect for improving cognitive function
COc1cc2c(cc1OC)C(=O)C(CC1CCN(Cc3ccccc3)CC1)C2 (stereo not drawn) [Donepezil, donepezil, reference compound]				Alternation behavior (%) [3]: 51.5^# % and 49.9^# %
CCc1nn(-c2noc(C3CCN(CC4CN(C(=O)OC)C4)CC3)n2)c2c(F)cccc12 [Example 218, methyl 3-({4-[3-(3-ethyl-7-fluoro-1H-indazol-1-yl)-1,2,4-oxadiazol-5-yl]piperidin-1-yl}methyl)azetidine-1-carboxylate]	59.9%	53%	61.3%	
CCc1nn(-c2noc(C3CCN(C[C@H]4CCN(C(C)=O)C4)CC3)n2)c2cc(F)ccc12.Cl [Example 205, 1-[(3R)-3-({4-[3-(3-ethyl-6-fluoro-1H-indazol-1-yl)-1,2,4-oxadiazol-5-yl]piperidin-1-yl}methyl)pyrrolidin-1-yl]ethanone hydrochloride]	66.9^# %	54.8%	66.7^# %	
CCc1nn(-c2noc(C3CCN(CCC4CCOCC4)CC3)n2)c2cc(F)ccc12 [Example 137, 3-ethyl-6-fluoro-1-(5-{1-[2-(tetrahydro-2H-pyran-4-yl)ethyl]piperidin-4-yl}-1,2,4-oxadiazol-3-yl)-1H-indazole]		49.3%	62.6^# %	IC50 [5]: < 20 nM; Emax ([6]; 0.25 h, intrinsic activity, maximal activity of 5-HT defined as 100%, read-out: IA (%)): 66%; EC50 ([6]; concentration showing 50% of IA): 8.6 nM
